# Experimental data taken from patent publication US9169502B2, “Method of producing L-lysine using a Corynebacterium glutamicum microorganism” (Paik Kwang Industrial Co., Ltd., priority 2010, dated 2015).
# Read-outs that look alike come from different tables or passages of the source.
# Columns and labels:
# [1] = target: T1, Corynebacterium glutamicum glucose 6-phosphate dehydrogenase (G6PDH, zwf), wild type (Corynebacterium glutamicum, UniProt Q8NQ63); assay: Kinetic characterization of wild type G6P dehydrogenase (Michaelis-Menten constants and inhibition by metabolites); type: biochemical; settings: relative to the activity without addition (100%)
# T1 sequence (Q8NQ63 1-484): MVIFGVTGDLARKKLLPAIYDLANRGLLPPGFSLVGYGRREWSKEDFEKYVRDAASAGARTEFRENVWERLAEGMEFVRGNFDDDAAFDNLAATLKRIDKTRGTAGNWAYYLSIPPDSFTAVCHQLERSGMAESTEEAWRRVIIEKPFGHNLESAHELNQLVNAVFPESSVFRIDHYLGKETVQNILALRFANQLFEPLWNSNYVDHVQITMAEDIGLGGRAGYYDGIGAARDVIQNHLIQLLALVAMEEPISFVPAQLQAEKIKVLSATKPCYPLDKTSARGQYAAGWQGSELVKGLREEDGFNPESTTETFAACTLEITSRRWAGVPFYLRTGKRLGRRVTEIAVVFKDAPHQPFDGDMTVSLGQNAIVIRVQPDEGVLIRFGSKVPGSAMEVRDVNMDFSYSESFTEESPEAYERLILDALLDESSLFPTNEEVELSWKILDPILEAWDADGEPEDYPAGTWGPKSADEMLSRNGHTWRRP
# T1 sequence (Q8NQ62 1-319 partner): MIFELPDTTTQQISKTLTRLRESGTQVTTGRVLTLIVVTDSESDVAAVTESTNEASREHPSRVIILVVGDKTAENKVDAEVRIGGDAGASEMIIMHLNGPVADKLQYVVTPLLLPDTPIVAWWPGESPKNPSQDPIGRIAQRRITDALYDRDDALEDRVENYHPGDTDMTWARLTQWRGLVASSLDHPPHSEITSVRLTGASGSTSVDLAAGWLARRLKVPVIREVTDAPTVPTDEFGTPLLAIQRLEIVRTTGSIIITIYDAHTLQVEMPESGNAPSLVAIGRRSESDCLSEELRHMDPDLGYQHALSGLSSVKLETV
# Method: (§1) In the exponential growth phase, cells were harvested by centrifugation (5 min, 9800×g, Biofuge stratos, Heraeus, Hanau, Germany), washed once with disruption buffer and finally suspended to 0.25 g CWW per mL. Disruption was performed by sonication (MSE soniprep 150, Sanyo Europe, Munich, Germany) in a ice-water-bath with five 15 sec pulses at 20 microns, or mechanically. To this end, cell suspension was aliquoted in 750 μl amounts in 2 mL Eppendorf tubes containing glass beads. Disruption was performed in a ribolyser (MM301, Retsch, Haan, Germany) at 30 Hz (2×5 min; 5 minutes break in between). Crude cell extracts were obtained by centrifugation for 10 minutes at 13000 rpm (Biofuge fresco, Heraeus, Hanau, Germany) for ribolyser disruption or 2×30 min at 8500 rpm (Biofuge stratos, Heraeus, Hanau, Germany) for disruption by sonication. Protein content was determined by the method of Bradford (Bradford, 1976) with a reagent solution from BioRad (Quick Start Bradford Dye, BioRad, Hercules, USA) and a BSA protein standard.
# All measurements were performed as triplicates in a total volume of 1 mL by online monitoring of the change in absorbance in a photospectrometer (Specord 40, Analytik Jena, Jena, Germany or Helios alpha, Thermo Scientific, Waltham, USA). […] Activities are given as specific enzyme activity [U mg^−1] with 1 U=1 μmol min^−1 at 30° C. and calculated from the change in absorbance [A min^−1] and a specific extinction coefficient of ε340=6.22 L mmol^−1 cm^−1 for NAD(P)H. As a general procedure, a master mix without substrate and cell extract was prepared from the stock solutions for the reaction buffer, MgCl2, Co-factors (NADP, NAD, NADH, ADP, TPP, CoA) and coupling enzymes (LDH, G6PDH, PGI, ribose 5-phosphate isomerase (RPI), ribulose 5-phosphate epimerase (RPE), TPI/GDH) and incubated for 10 min at 30° C. […]
# Cell disruption was performed in a buffer containing 100 mM Tris/HCl (pH 7.5), 10 mM MgCl2 and 0.75 mM DTT. […] Due to instability of the enzyme, the activity was measured immediately after cell disruption. […]
# [2] = target: T2, Corynebacterium glutamicum glucose 6-phosphate dehydrogenase (G6PDH, zwf), variant A243T (Corynebacterium glutamicum, UniProt Q8NQ63); assay: Kinetic characterization of A243T-variant of G6P dehydrogenase (Michaelis-Menten constants and inhibition by metabolites); type: biochemical; settings: for Km: A243T mutant, cell extracts from cells grown on minimal medium with glucose, 30° C., pH 7.8
# T2 construct: grown on glucose minimal medium
# Method: as §1
# All measurements were performed as triplicates in a total volume of 1 mL by online monitoring of the change in absorbance in a photospectrometer (Specord 40, Analytik Jena, Jena, Germany or Helios alpha, Thermo Scientific, Waltham, USA). Negative controls were carried out without substrate or cell extract, respectively. Activities are given as specific enzyme activity [U mg^−1] with 1 U=1 μmol min^−1 at 30° C. and calculated from the change in absorbance [A min^−1] and a specific extinction coefficient of ε340=6.22 L mmol^−1 cm^−1 for NAD(P)H. As a general procedure, a master mix without substrate and cell extract was prepared from the stock solutions for the reaction buffer, MgCl2, Co-factors (NADP, NAD, NADH, ADP, TPP, CoA) and coupling enzymes (LDH, G6PDH, PGI, ribose 5-phosphate isomerase (RPI), ribulose 5-phosphate epimerase (RPE), TPI/GDH) and incubated for 10 min at 30° C. Substrate solution and cell extract were provided in 1.5 mL polystyrene cuvettes (Plastibrand, Wertheim, Germany). The reaction was started by quick addition of the master mix.
# Cell disruption was performed in a buffer containing 100 mM Tris/HCl (pH 7.5), 10 mM MgCl2 and 0.75 mM DTT. DTT was prepared freshly as 100 mM stock solution and added to the cell suspension before disruption. Due to instability of the enzyme, the activity was measured immediately after cell disruption. The reaction mix for quantification of the G6P dehydrogenase activity contained 100 mM Tris/HCl (pH 7.8), 200 mM KCl, 1 mM NADP, 10 mM MgCl2, 5 mM G6P and 50 μl cell extract. Michaelis-Menten affinity constants were determined by varying the concentrations of the substrates, G6P or NADP, respectively. To test the influence of effectors on activity, the reaction mix was additionally supplemented with ATP, PEP, FBP or NADPH in varied concentrations.
# [3] = test system: Corynebacterium glutamicum diaminopimelate dehydrogenase (DDH), SEQ ID NO: 6; settings: Wehrmann, et al., 1998; read-out: km value towards ammonium; cited from earlier work
smiles,measurement,setting,value
"Nc1ncnc2c1ncn2[C@@H]1O[C@H](COP(=O)(O)OP(=O)(O)OP(=O)(O)O)[C@@H](O)[C@H]1O [ATP, Adenosine triphosphate]",percent remaining activity at 5000 µM,[1]; 5 mM ATP,68.8 ± 0.1%
same,"Inhibition by metabolites (Remaining Activity), ATP","[2]; 5 mM ATP, relative to the activity without addition (100%)",86.0 ± 0.2%
"O=P(O)(O)OC[C@H]1OC(O)(COP(=O)(O)O)[C@@H](O)[C@@H]1O (stereo partly shown) [FBP, Fructose 1,6-bisphosphate]",inhibition at 5000 µM,"[1]; 5 mM FBP, read-out: Inhibition by metabolites (Remaining Activity), FBP",84.4%
same,"Inhibition by metabolites (Remaining Activity), FBP","[2]; 5 mM FBP, relative to the activity without addition (100%)",87.0 ± 0.1%
"O=P(O)(O)OC[C@H]1OC(O)[C@H](O)[C@@H](O)[C@@H]1O (stereo partly shown) [G6P, Glucose 6-phosphate]",Km,"[2]; read-out: KM, G6P",481 ± 31 µM
"NC(=O)c1ccc[n+]([C@@H]2O[C@H](COP(=O)(O)OP(=O)(O)OC[C@H]3O[C@@H](n4cnc5c(N)ncnc54)[C@H](OP(=O)(O)O)[C@@H]3O)[C@@H](O)[C@H]2O)c1 [NADP, Nicotinamide adenine dinucleotide phosphate]",Km,"[2]; read-out: KM, NADP",75 ± 4 µM
"NC(=O)C1=CN([C@@H]2O[C@H](COP(=O)(O)OP(=O)(O)OC[C@H]3O[C@@H](n4cnc5c(N)ncnc54)[C@H](OP(=O)(O)O)[C@@H]3O)[C@@H](O)[C@H]2O)C=CC1 [NADPH, Nicotinamide adenine dinucleotide phosphate]",inhibition by NADPH,"[2]; A243T compared with wild type enzyme, FIG. 10B",No significant difference
"C=C(OP(=O)(O)O)C(=O)O [PEP, Phosphoenolpyruvate]",inhibition at 5000 µM,"[1]; 5 mM PEP, read-out: Inhibition by metabolites (Remaining Activity), PEP",62.6 ± 0.1%
same,"Inhibition by metabolites (Remaining Activity), PEP","[2]; 5 mM PEP, relative to the activity without addition (100%)",72.5 ± 0.1%
N [ammonium],Km,[3],34000 µM
